According to PubChem BioAssay (NCI):
Where “and” joins values, the source holds several entries; their conditions need not be identical. Identical values can stand only once.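 In this assay, cells in 96-well plates receive the compound at five concentrations for 48 hours. Endpoints are linearly interpolated between the surrounding concentrations. Here, GI50 denotes the concentration required for 50% inhibition of growth. TGI: total growth inhibition.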

Experiments:
Test in all cases: NCI tumour cell line growth inhibition, 48 h
[1] = tested on: BT-549 breast
[2] = tested on: CAKI-1 renal
[3] = tested on: HOP-92 NSCLC
[4] = tested on: K-562 leukemia
[5] = tested on: NCI/ADR-RES ovarian
[6] = tested on: OVCAR-5 ovarian
[7] = tested on: OVCAR-8 ovarian
[8] = tested on: SF-295 CNS
[9] = tested on: SNB-75 CNS
[10] = tested on: TK-10 renal

| Compound | GI50 [1] | TGI [1] | GI50 [2] | TGI [2] | GI50 [3] | TGI [3] | GI50 [4] | TGI [4] | GI50 [5] | TGI [5] | GI50 [6] | TGI [6] | GI50 [7] | TGI [7] | GI50 [8] | TGI [8] | GI50 [9] | TGI [9] | GI50 [10] | TGI [10] |
| --- | --- | --- | --- | --- | --- | --- | --- | --- | --- | --- | --- | --- | --- | --- | --- | --- | --- | --- | --- | --- |
| COC(=O)CCc1c[nH]c2ccc(N(CCCl)CCCl)cc12 | 8.52 µM | 41.5 µM | 0.375 µM | > 28.4 µM | 2.24 µM | 28.6 µM | 9.68 µM | > 100 µM | 2.3 µM | > 56.8 µM | 5.32 µM | 46.1 µM | 3.05 µM | > 60.5 µM | 0.826 µM | > 58.8 µM | 1.04 µM | 11.6 µM | 4.82 µM | 66 µM |
| FC(F)c1nc2ccccc2n1-c1nc(N2CCOCC2)nc(N2CCOCC2)n1 | 0.0992 µM and 0.145 µM | 1.26 µM and 3.97 µM | 0.197 µM and 0.268 µM | 4.25 µM and 2.35 µM | 0.0486 µM and 0.0548 µM | 0.382 µM and 0.551 µM | 4.09 µM and 5.15 µM | > 100 µM | 0.457 µM and 0.496 µM | > 100 µM | 0.329 µM and 0.447 µM | > 100 µM | 0.639 µM and 0.492 µM | > 100 µM | 0.237 µM and 0.196 µM | 1.63 µM and 1.78 µM | 0.0257 µM and 0.0295 µM | 0.403 µM and 0.481 µM | 0.129 µM and 0.205 µM | 0.907 µM and 1.58 µM |
| FC(F)(F)c1nc2nc(Cl)c(Cl)nc2n1CCCN1CCOCC1 |  | > 100 µM |  | 14.7 µM |  | > 100 µM |  | 39.6 µM |  | > 100 µM |  | > 100 µM |  | > 100 µM |  | > 100 µM |  | > 100 µM |  | > 100 µM |
| CC(C)(C)C(=O)c1c(C(F)(F)F)n([O-])c2ccccc2[n+]1=O | 0.428 µM | 1.59 µM | 0.282 µM | 0.811 µM | 0.573 µM | 1.93 µM | 0.757 µM | 2.38 µM | 0.571 µM | 2.36 µM | 0.998 µM | 2.15 µM | 0.254 µM | 1.35 µM | 0.294 µM | 1.27 µM | 0.46 µM | 2.05 µM | 0.896 µM | 2.18 µM |
| O=S(=O)(Nc1ccccc1Cl)c1ccc(-c2cnc(C3CC3)o2)cc1 | 2.12 µM | 69.3 µM | 0.321 µM | 82 µM | 0.324 µM | 7.28 µM | 0.0845 µM | > 100 µM | 0.314 µM | 65.9 µM | 2.44 µM | > 100 µM | 1.22 µM | > 100 µM | 0.438 µM | 15.3 µM | 0.139 µM | 0.599 µM | 11.8 µM | > 100 µM |
| O=C(CC(c1ccccc1)c1c(O)c2ccccc2oc1=O)c1ccccc1 (stereo not given) |  | > 100 µM |  | 46.4 µM |  | > 86.5 µM |  | > 100 µM |  | > 100 µM |  | > 100 µM |  | > 100 µM |  | > 100 µM |  | > 100 µM |  | > 100 µM |
| C=C1C(O)C2C(=C(CCc3ccccc3)C13CC3)C(=O)C(C)(CO)C2O (stereo not given) | > 100 µM | > 100 µM | > 100 µM | > 100 µM | 12.5 µM | > 100 µM | > 100 µM | > 100 µM | > 100 µM | > 100 µM | > 100 µM | > 100 µM | > 100 µM | > 100 µM | > 100 µM | > 100 µM | > 100 µM | > 100 µM | 57.4 µM | > 100 µM |
| COc1ccc(-c2cn[nH]c2-c2cc(OC)c3c(c2)OCO3)cc1 | 2.26 µM | 25.8 µM | 0.262 µM | 24.9 µM | 0.417 µM | 20.8 µM | 0.0467 µM | > 66.2 µM | 0.12 µM | 27.4 µM | 1.34 µM | 36.6 µM | 0.423 µM | 15.1 µM | 0.181 µM | 4.15 µM | 0.134 µM | 0.707 µM | 1.51 µM | 63.3 µM |
| CCOC(=O)N1CCN(c2nc(Nc3cc(C)[nH]n3)c3ccccc3n2)CC1 | 3.85 µM | 16.2 µM | 0.97 µM | 17.8 µM | 1.92 µM | 11.9 µM | 2.94 µM | > 100 µM | 4.25 µM | 37 µM | 3.25 µM | > 100 µM | 8.63 µM | 63.2 µM | 5.98 µM | > 100 µM | 0.727 µM | 5.66 µM | 0.909 µM | 35.1 µM |
| Clc1nc(Cl)c2ncn(Cc3cccc(Cn4cnc5c(Cl)nc(Cl)nc54)c3)c2n1 | 3.35 µM | 11.3 µM | 12 µM | 26.3 µM | 6.13 µM | 22.4 µM | 3.11 µM | 17.1 µM | 12.5 µM | 35 µM | 15 µM | 28.8 µM | 4.67 µM | 18.6 µM | 16.5 µM | 30.9 µM | 5.58 µM | 22.6 µM | 2.46 µM | 7.31 µM |
| Cc1nc(SCC(=O)Nc2nc(-c3ccc(Cl)cc3)cs2)n(Nc2ccccc2)c1C | 7.02 µM | 20.9 µM | 3.93 µM | 22.6 µM | 1.61 µM | 6.89 µM | 0.12 µM | > 100 µM | 2.6 µM | 7.18 µM | 2.65 µM | 13.5 µM | 2.71 µM | 7.73 µM | 2.29 µM | 16.5 µM | 3.48 µM | 16.2 µM | 3.65 µM | 13.8 µM |
| Cc1cnc(NC(=O)Nc2cc(Br)c(C)cc2OC[C@@H]2CNCCO2)cn1 | 1.28 µM and 1.29 µM | > 10 µM and 13.6 µM | 1.74 µM and 0.852 µM | > 10 µM and 6.16 µM | 0.546 µM and 0.389 µM | > 10 µM and 5.72 µM | 0.466 µM and 0.419 µM | 6.27 µM and 2.5 µM | 0.841 µM and 0.679 µM | > 10 µM and 11.7 µM | 2.1 µM and 1.96 µM | > 10 µM and 13.4 µM | 0.666 µM and 0.664 µM | > 10 µM and 12.8 µM | 0.326 µM and 0.263 µM | > 10 µM and 3.02 µM | 4.61 µM and 2.95 µM | > 10 µM and 15.8 µM | 0.703 µM and 2.18 µM | > 10 µM and 16.6 µM |
| C=C(C)C(=O)O[C@H]1C[C@@]23O[C@@H]2CCC(=C[C@H]2OC(=O)C(=C)[C@H]12)COC3O (stereo not given in full) |  | > 100 µM |  | > 100 µM |  | 53.6 µM |  | 44 µM |  | > 100 µM |  | > 100 µM |  | > 100 µM |  | > 100 µM |  | > 100 µM |  | > 100 µM |
